Reference: US20050202559A1, “Cancer treatment by metabolic modulations” (priority 2002, published 2005)

Key:
[1] = tested on: GSK-3; settings: read-out: concentration that inhibits GSK-3 to half maximal activity; cited from earlier work
[2] = tested on: HeLa cells; test: Adenovirus infection, Trypan Blue viability cell counts and morphology; assay type: cell-based, human; settings: roscovitine-treated versus untreated
Method: (§1) Cultured cells lines were seeded on six or twelve well tissue culture plates. When they reached 70-85% confluence, cells were infected with various amounts of recombinant GL adenovirus or control adenovirus. Adenovirus was added to each well in 300 μl medium and incubated for 2 hours at 37° C., 5% CO2. After incubation, 1.5 ml of medium was added and incubated at 37° C., 5% CO2. The medium was changed every day. At various time points post-infection, viable cells were counted using Trypan Blue and the remaining cells were collected and frozen for subsequent glycogen measurements.
Trypan Blue Viability Cell Counts: Trypan Blue (0.4%, Gibco) was used to stain dead and dying cells. Cells were removed from the tissue culture plates with 0.25% Trypsin-EDTA (Gibco #25200-056) and resuspended in 1 ml phosphate buffered saline (PBS). Manual cell counts were performed with a Neubauer hemocytometer.
Roscovitine Studies: Roscovitine (Calbiochem #557362), [2-(R)-(1-ethyl-2-hydroxyethylamino)-6-benzyl amino-9-isopropylpurine], is a potent and selective inhibitor of the cyclin-dependent kinases Cdk2 and Cdc2. Roscovitine stock solution was prepared in dimethylsulfoxide (DMSO) and stored at −20° C. until use. […]
Cell viability after viral infection was assessed using the Trypan Blue exclusion assay. Cells stained with Trypan Blue and viable cells are counted using a Neubauer hemocytometer. […]

[3] = tested on: HeLa cells; test: Glycogen assay (glucoamylase hydrolysis, glucose Trinder reagent); assay type: cell-based, human; settings: uninfected control HeLa cells, 35 μM roscovitine
Method: as §1
Glycogen Assay: Enzymatic glycogen hydrolysis to glucose was performed according to Keppler and Decker with some modifications (Keppler and Decker, 1984 in: Methods of Enzymatic Analysis, 3rd ed. (Bergmeyer, H. U. Bergmeyer, J., and Grab, M. Eds.), Vol. 6, pp. 11-18, VCH, New York.). In brief, frozen cell pellets were subjected to three rounds of freezing and thawing to disrupt cell membranes. Cell pellets were resuspended in 200 μl 250 mU glucoamylase in 0.2 M sodium acetate buffer, pH 4.8. Lysates were incubated for two hours at 45° C. with shaking. Lysates were cleared by centrifugation at 2500 rpm for 10 min. […] Glucose was then determined with the glucose Trinder colorometric reagent (Sigma, 315-500). The intensity of the color reaction was measured at 505nm using a Molecular Devices VERSAmax microplate reader. […]

[4] = tested on: GSK-3; settings: cited from earlier work

Which IC50 [1] does the source give for `[Be+2]` [beryllium] here?
Its IC50 is 6 mM.

Which results are given for `CC[C@H](CO)Nc1nc(NCc2ccccc2)c2ncn(C(C)C)c2n1` [roscovitine, 2-(R)-(1-ethyl-2-hydroxyethylamino)-6-benzyl amino-9-isopropylpurine]?
cell viability of AdGL-infected cells [2]: significantly decreased; glycogen accumulation [3]: no significant increases

Which “concentration at which GSK-3 is inhibited in cell culture” value [4] does the source give for `[Zn+2]` [zinc] here?
The value was 15 mM.
